The first experiment concerns MM.1S cells. Briefly: Proliferation inhibition (IC50) in MM.1S cells, cell viability assay. The settings on record: Homo sapiens, MM1.S, 72 h, read-out: IC50 (nM), proliferation inhibitory activity of MM.1S cells (half inhibitory concentration).
Procedure: MM.1S (B lymphoblast) was purchased from ATCC. Complete medium was RPMI1640 supplemented with 10% FBS and 1% Penicillin-Streptomycin. The cells used were identified as correct cells by STR cells, and were negative for mycoplasma through routine inspections.
IC50 values of the compounds of the present disclosure were measured using Cell Titer Blue, Cell Titer GLO, or WST reagent from Promega Company. Assay details are as follows: Cells were seeded in 100 μL RPMI1640 complete medium containing serum at a density of 15,000 cells/well. After 24 h, the inoculated cells were treated with diluted commercial inhibitor and the compounds of the present disclosure to be tested after serial dilution. After the cells were treated with the compounds of the present disclosure to be tested for 72 h, cell viability was determined after adding the cell viability detection kit listed above according to the reagent operating instructions. The negative control was DMSO, and the positive control was a commercial inhibitor, both of which were used to treat the cells through the same method as that of the compounds of the present disclosure. The growth inhibition of the compounds of the present disclosure on cells was plotted by Prism Graphpad software, and the IC50 values of the compounds of the present disclosure were calculated therefrom.
We tested the activities of the compounds of the present invention in MM.1S cell (which overexpressed IKZF1/3 and is highly sensitive to immunomodulatory drugs) through a dose-dependent manner. The cells were treated with the compounds of the present invention at 10 different successively decreasing concentrations (starting at the highest concentration of 10 μM; 5-fold serial dilutions) for 72 h, and then the cell viability determination was performed in accordance with CCK-8 reagent operating instructions. The experiment was repeated more than three times.
In the case of `CN(C)CCCCCSc1cccc2c1CN(C1CCC(=O)NC1=O)C2=O` (centres unmarked) [SIAIS1216089, 3-(4-((5-(dimethylamino)pentyl)thio)-1-oxoisoindolin-2-yl)piperidine-2,6-dione], the IC50 was determined as 2.83 ± 0.76 nM.
`CC(=O)NCCCCCSc1cccc2c1CN(C1CCC(=O)NC1=O)C2=O` (centres unmarked) [SIAIS1216095, N-(5-((2-(2,6-dioxopiperidin-3-yl)-1-oxoisoindolin-4-yl)thio)pentyl)acetamide]: the IC50 stood at 1.53 ± 0.4 nM.
Still for that read-out and setting: in the case of `O=C1CCC(N2Cc3c(SCCCCCCCCSc4cccc5c4CN(C4CCC(=O)NC4=O)C5=O)cccc3C2=O)C(=O)N1` (centres unmarked) [SIAIS1216137B, 3,3′-((octane-1,8-diylbis(sulfanediyl))bis(1-oxoisoindoline-4,2-diyl))bis(piperidine-2,6-dione)] it was 1.41 nM; in that of `CCN(CC)CCCCCSc1cccc2c1CN(C1CCC(=O)NC1=O)C2=O` (centres unmarked) [SIAIS1216139, 3-(4-((5-(diethylamino)pentyl)thio)-1-oxoisoindolin-2-yl)piperidine-2,6-dione], 4.06 ± 0.64 nM.
For `CNCCCCCSc1cccc2c1CN(C1CCC(=O)NC1=O)C2=O` (centres unmarked) [SIAIS1216141, 3-(4-((5-(methylamino)pentyl)thio)-1-oxoisoindolin-2-yl)piperidine-2,6-dione], the IC50 came out at 12.6 ± 3.47 nM.
As for `O=C1CCC(N2Cc3c(SCCCCCCCCN4CCOCC4)cccc3C2=O)C(=O)N1` (centres unmarked) [SIAIS1216143, 3-(4-((8-morpholinooctyl)thio)-1-oxoisoindolin-2-yl)piperidine-2,6-dione], the IC50 stood at 0.17 ± 0.04 nM.
Still for that read-out and setting: in the case of `O=C1CCC(N2Cc3c(SCCCCCCCCN4CCNCC4)cccc3C2=O)C(=O)N1` (centres unmarked) [SIAIS1216145, 3-(1-oxo-4-((8-(piperazin-1-yl)octyl)thio)isoindolin-2-yl)piperidine-2,6-dione] it was 3.86 ± 0.87 nM.
Regarding `CCN(CC)CCCCCCCCSc1cccc2c1CN(C1CCC(=O)NC1=O)C2=O` (centres unmarked) [SIAIS1216147, 3-(4-((8-(diethylamino)octyl)thio)-1-oxoisoindolin-2-yl)piperidine-2,6-dione], the IC50 is 0.19 ± 0.04 nM.
`CN(C)CCCCCCCCSc1cccc2c1CN(C1CCC(=O)NC1=O)C2=O` (centres unmarked) [SIAIS1216149, 3-(4-((8-(dimethylamino)octyl)thio)-1-oxoisoindolin-2-yl)piperidine-2,6-dione]: the IC50 came out at 0.32 ± 0.15 nM.
Still for that read-out and setting: then `CNCCCCCCCCSc1cccc2c1CN(C1CCC(=O)NC1=O)C2=O` (centres unmarked) [SIAIS1216151, 3-(4-((8-(methylamino)octyl)thio)-1-oxoisoindolin-2-yl)piperidine-2,6-dione], with 0.33 ± 0.15 nM; and `O=C1CCC(N2Cc3c(SCCCO)cccc3C2=O)C(=O)N1` (centres unmarked) [SIAIS1216189, 3-(4-((3-hydroxypropyl)thio)-1-oxoisoindolin-2-yl)piperidine-2,6-dione], with 2.25 nM.
For `CN(C)CCOCCOCCSc1cccc2c1CN(C1CCC(=O)NC1=O)C2=O` (centres unmarked) [SIAIS1216195, 3-(4-((2-(2-(2-(dimethylamino)ethoxy)ethoxy)ethyl)thio)-1-oxoisoindolin-2-yl)piperidine-2,6-dione], the IC50 is 4.96 ± 0.54 nM.
As for `O=C1CCC(N2Cc3c(SCCCCCCCCN4CCCCC4)cccc3C2=O)C(=O)N1` (centres unmarked) [SIAIS1220009, 3-(1-oxo-4-((8-(piperidin-1-yl)octyl)thio)isoindolin-2-yl)piperidine-2,6-dione], the IC50 is 0.12 ± 0.03 nM.
On the same count and under the same terms, in the case of `CN1CCN(CCCCCCCCSc2cccc3c2CN(C2CCC(=O)NC2=O)C3=O)CC1` (centres unmarked) [SIAIS1220011, 3-(4-((8-(4-methylpiperazin-1-yl)octyl)thio)-1-oxoisoindolin-2-yl)piperidine-2,6-dione] it was 0.57 ± 0.21 nM; in that of `O=C1CCC(N2Cc3c(SCCCCCCCCN4CCCNCC4)cccc3C2=O)C(=O)N1` (centres unmarked) [SIAIS1220017, 3-(4-((8-(1,4-diazepan-1-yl)octyl)thio)-1-oxoisoindolin-2-yl)piperidine-2,6-dione], 2.77 nM; in that of `O=C1CCC(N2Cc3c(SCCCCCCCCN4CCC(N5CCNCC5)CC4)cccc3C2=O)C(=O)N1` (centres unmarked) [SIAIS1220019, 3-(1-oxo-4-((8-(4-(piperazin-1-yl)piperidin-1-yl)octyl)thio)isoindolin-2-yl)piperidine-2,6-dione], 2.08 nM.
In the case of `CC(C)N(CCCCCCCCSc1cccc2c1CN(C1CCC(=O)NC1=O)C2=O)C(C)C` (centres unmarked) [SIAIS1220021, 3-(4-((8-(diisopropylamino)octyl)thio)-1-oxoisoindolin-2-yl)piperidine-2,6-dione], the IC50 was 0.16 ± 0.05 nM.
`O=C1CCC(N2Cc3c(SCCCCCCCCCCN4CCOCC4)cccc3C2=O)C(=O)N1` (centres unmarked) [SIAIS1220023, 3-(4-((10-morpholinodecyl)thio)-1-oxoisoindolin-2-yl)piperidine-2,6-dione]: the IC50 came out at 0.46 ± 0.19 nM.
Turning to `CCN(CC)CCCCCCCCCCSc1cccc2c1CN(C1CCC(=O)NC1=O)C2=O` (centres unmarked) [SIAIS1220025, 3-(4-((10-(diethylamino)decyl)thio)-1-oxoisoindolin-2-yl)piperidine-2,6-dione], the IC50 is 0.49 ± 0.05 nM.
As to `O=C1CCC(N2Cc3c(SCCCCCCN4CCOCC4)cccc3C2=O)C(=O)N1` (centres unmarked) [SIAIS1220027, 3-(4-((6-morpholinohexyl)thio)-1-oxoisoindolin-2-yl)piperidine-2,6-dione], the IC50 stood at 0.7 nM.
As to `CCN(CC)CCCCCCSc1cccc2c1CN(C1CCC(=O)NC1=O)C2=O` (centres unmarked) [SIAIS1220029, 3-(4-((6-(diethylamino)hexyl)thio)-1-oxoisoindolin-2-yl)piperidine-2,6-dione], the IC50 is 1.13 nM.
As for `O=C1CCC(N2Cc3c(SCCCCCCCN4CCOCC4)cccc3C2=O)C(=O)N1` (centres unmarked) [SIAIS1220031, 3-(4-((7-morpholinoheptyl)thio)-1-oxoisoindolin-2-yl)piperidine-2,6-dione], the IC50 is 0.22 ± 0.04 nM.
For the molecule `CCN(CC)CCCCCCCSc1cccc2c1CN(C1CCC(=O)NC1=O)C2=O` (centres unmarked) [SIAIS1220033, 3-(4-((7-(diethylamino)heptyl)thio)-1-oxoisoindolin-2-yl)piperidine-2,6-dione], the IC50 came out at 0.23 ± 0.08 nM.
For `CCN(CC)CCNCCCCCSc1cccc2c1CN(C1CCC(=O)NC1=O)C2=O` (centres unmarked) [SIAIS1220035, 3-(4-((5-((2-(diethylamino)ethyl)amino)pentyl)thio)-1-oxoisoindolin-2-yl)piperidine-2,6-dione], the IC50 came out at 4.13 ± 1.43 nM.
On the same count and under the same terms, in the case of `CCN(CC)CCNCCCCCCCCSc1cccc2c1CN(C1CCC(=O)NC1=O)C2=O` (centres unmarked) [SIAIS1220037, 3-(4-((8-((2-(diethylamino)ethyl)amino)octyl)thio)-1-oxoisoindolin-2-yl)piperidine-2,6-dione] it was 0.83 ± 0.39 nM; in that of `O=C1CCC(N2Cc3c(SCCCCCCCCCCCN4CCOCC4)cccc3C2=O)C(=O)N1` (centres unmarked) [SIAIS1220045, 3-(4-((11-morpholinoundecyl)thio)-1-oxoisoindolin-2-yl)piperidine-2,6-dione], 0.36 ± 0.13 nM; in that of `CCN(CC)CCCCCCCCCCCSc1cccc2c1CN(C1CCC(=O)NC1=O)C2=O` (centres unmarked) [SIAIS1220047, 3-(4-((11-(diethylamino)undecyl)thio)-1-oxoisoindolin-2-yl)piperidine-2,6-dione], 0.11 ± 0.01 nM.
`CN1CCN(C2CCN(CCCCCCCCSc3cccc4c3CN(C3CCC(=O)NC3=O)C4=O)CC2)CC1` (centres unmarked) [SIAIS1220049, 3-(4-((8-(4-(4-methylpiperazin-1-yl)piperidin-1-yl)octyl)thio)-1-oxoisoindolin-2-yl)piperidine-2,6-dione]: the IC50 is 0.26 nM.

The same experiment, now with this note: Homo sapiens, MM1.S, 72 h, read-out: IC50 against MM.1S cells (proliferation inhibition).
For `O=C1CCC(N2Cc3c(SCCCCCCCCN4CCCCC4)cccc3C2=O)C(=O)N1` (centres unmarked) [SIAIS1220009, 3-(1-oxo-4-((8-(piperidin-1-yl)octyl)thio)isoindolin-2-yl)piperidine-2,6-dione], the IC50 was around 0.12 nM.
